Measurements published in patent US20220168472A1, “ENZYME-DEGRADABLE HYDROGEL FOR DELIVERY OF A PAYLOAD” (priority 2019, published 2022).

Experiments:
[1] = system: human corneal epithelial cells (HCEpCs); experiment: PDMS stencil wound assay, HCEpCs, bolus HA or MMP-9; type: cell-based; settings: for increase of wound healing rate: 0.1-0.6 mg/mL
Description: HCEpCs were cultured in a T-25 flask with keratinocyte serum-free media supplemented with keratinocyte growth serum and penicillin/streptomycin (KM; Sciencell) that was changed every other day. The SV-40 immortalized HCEpCs were generously donated from a collaborator (for example, see: F. Li, M. Griffith, Z. Li, S. Tanodekaew, H. Sheardown, M. Hakim, and D. J. Carlsson, “Recruitment of multiple cell lines by collagen-synthetic copolymer matrices in corneal regeneration,” Biomaterials, vol. 26, no. 16, pp. 3093-3104, 2005 Jun. 1, doi: https://doi.org/10.1016/j.biomaterials.2004.07.063; and/or M. Griffith, R. Osborne, R. Munger, X. Xiong, C. J. Doillon, N. L. C. Laycock, M. Hakim, Y. Song, and M. A. Watsky, “Functional Human Corneal Equivalents Constructed from Cell Lines,” Science, vol. 286, no. 5447, pp. 2169-2172, 1999, doi: 10.1126/science.286.5447.2169, the entire contents of which are incorporated herein by reference). Once confluence was reached, the HCEpCs were passaged in 2 ml of TrypLE Express (GIBCO, Life Technologies, Thermo Scientific) and subcultured for the wound assay as described previously. The HCEpCs were cultured with KM until a monolayer had formed. Wound assays were conducted as described above for RCEpCs. The well was then rinsed with PBS and replaced with KM. Images were taken daily to observe the closure of the wound and graphs were generated using GraphPad Prism 6.
(§1) To validate the wound assays 200 kDa hyaluronic acid (151-300 kDa HA; Lifecore Biomedicals) were added to the media of both RCEpC and HCEpC PDMS wound assays. Once the wound assays were validated, the efficacy of medium sized 60 kDa HA (66-99 kDa; Lifecore Biomedicals) was investigated. Various concentrations of 60 kDa HA were dissolved in KM and added as a bolus dosage to HCEpC wound assays. The media was changed daily until full closure of the wound. Images were taken daily to observe the closure of the wound and graphs were generated using GraphPad Prism 6.
(§2) To verify if the wound assay could provide a consistent initial wound area to two different corneal epithelial cell types, 1 mm diameter PDMS wound assays were performed with both rabbit corneal epithelial cells (RCEpCs; FIG. 20A) and human corneal epithelial cells (HCEpCs; FIG. 20B). Primary RCEpCs were initially used as they would behave similar to future in vivo rabbit studies. Healing of the wound varied between the two cell-types, with the primary RCEpC wound healing within 2 days and the HCEpC wound healing in 7 days (FIG. 20C). […] The improvement was narrowed to 21% (95.9%±6.9% wound closure) at 18.5 hours, compared to the control (74.9%±9.0%). […] HA was confirmed to be a potential drug due to its consistency among cell types, rapid ability to heal wounds, low minimum effective concentration, and cost efficiency.
Most literature assesses the effects of native high molecular weight HA and oligomer HA on epithelial wound healing. To obtain an ideal MMP-9 controlled release profile, the influence of mid-size 60 kDa HA on corneal wound healing was investigated. PDMS-stencil wound assays were conducted using 0.05, 0.1, 0.3, 0.6, or 1.0 mg/ml of 60 kDa HA treatments daily (FIG. 21A). A 250 ng/ml MMP-9 sample was included to observe the effects of the enzyme on wound healing, similar to an in vivo environment.

[2] = system: rabbit corneal epithelial cells (RCEpCs); experiment: PDMS stencil wound assay, RCEpCs, bolus HA; type: cell-based
Description: Primary rabbit corneal epithelial cells (Cell Biologics Inc.) were cultured using a T-25 flask in epithelial cell media supplemented with insulin-transferrin-selenium, epidermal growth factor, L-glutamine, antibiotic-antimycotic solution and fetal bovine serum (Cell Biologics Inc.). Once confluence was reached, the RCEpCs were briefly rinsed with PBS and passaged with trypsin-EDTA (GIBCO, Thermo Scientific). The cells were then sub-cultured on a 24-well plate surface pre-coated with a gelatin-based coating (Cell Biologics Inc.) containing a thin, punched out poly-dimethyl siloxane (PDMS) stencil adhered to the surface. The media was changed daily until a cell monolayer was formed. The PDMS disk stencil was then carefully removed from the surface. The well was then rinsed with PBS and replaced with epithelial cell media. Images were taken daily to observe the closure of the wound and graphs were generated using GraphPad Prism 6.
as §1, §2

| Substance | increase of wound healing rate ([1]; 60 hours) | increase of wound healing rate ([1]; first 24 hours) | wound healing compared to the control ([1]; 0.3, 0.6, and 0.05 mg/ml daily) | wound healing compared to the control ([1]; the other HA samples (of 0.05, 0.1, 0.3, 0.6, 1.0 mg/ml) daily) | improvement in wound healing relative to the control ([1]; 0.45 mg/ml HA, 33 hours) | wound closure ([1]; 0.45 mg/ml HA, 33 hours) | improvement in wound healing relative to the control ([1]; 0.45 mg/ml HA, 59.5 hours) | wound closure ([1]; 0.45 mg/ml HA, 59.5 hours) | improvement in wound healing relative to the control ([1]; 0.75 mg/ml HA, 18.5 hours) | wound closure ([1]; 0.75 mg/ml HA, 18.5 hours) | improvement in wound healing relative to the control ([1]; 0.75 mg/ml HA, 59.5 hours) | wound closure ([1]; 0.75 mg/ml HA, 59.5 hours) | improvement in wound healing relative to the control ([2]; 0.45 mg/ml HA, 4 hours) | wound closure ([2]; 0.45 mg/ml HA, 4 hours) | improvement in wound healing relative to the control ([2]; 0.45 mg/ml HA, 18.5 hours) | wound closure ([2]; 0.45 mg/ml HA, 18.5 hours) | improvement in wound healing relative to the control ([2]; 0.75 mg/ml HA, 12 hours) | wound closure ([2]; 0.75 mg/ml HA, 12 hours) |
| --- | --- | --- | --- | --- | --- | --- | --- | --- | --- | --- | --- | --- | --- | --- | --- | --- | --- | --- |
| hyaluronic acid [60 kDa HA] | 24% | 40% | healed rapidly | slowed wound healing compared to the control |  |  |  |  |  |  |  |  |  |  |  |  |  |  |
| hyaluronic acid [HA] |  |  |  |  | 31% | 42.8%±7.2% | 19% | 81.8%±7.6% | 58% | 27.5%±7.1% | 26% | 86.5%±4.2% | 149% | 36.4%±14.6% | 21% | 95.9%±6.9% | 35% | 64.9%±13.6% |
